Consider 33 compounds from ChEMBL document CHEMBL2440045, “The synthesis and anticancer activity of analogs of the indole phytoalexins brassinin, 1-methoxyspirobrassinol methyl ether and cyclobrassinin” (Bioorg Med Chem, 2013).

What all share (type): functional, cell-based
In one test the test system is Jurkat. Put plainly: Antiproliferative activity against human Jurkat cells assessed as cell viability after 72 hrs by MTT assay.
In the next test the test system is MCF7. Put plainly: Antiproliferative activity against human MCF7 cells assessed as cell viability after 72 hrs by MTT assay. To be noted: MCF7, 72 h. Background: Tetrazolium assays rely on reduction of a dye to a coloured formazan, in cell work by metabolically active cells.
The test system of another test is CCRF-CEM. Put plainly: Antiproliferative activity against human CCRF-CEM cells assessed as cell viability after 72 hrs by MTT assay.
A further test deals with HeLa. The experiment in a line: Antiproliferative activity against human HeLa cells assessed as cell viability after 72 hrs by MTT assay.
A further test deals with MDA-MB-231. The experiment in a line: Antiproliferative activity against human MDA-MB-231 cells assessed as cell viability after 72 hrs by MTT assay. To be noted: MDA-MB-231, 72 h.
The test system of the next test is A549. The experiment in a line: Antiproliferative activity against human A549 cells assessed as cell viability after 72 hrs by MTT assay. The following applies: A549, 72 h.

A word on the IC50: it is the concentration at which inhibition is half-maximal. Turning to `c1ccc2c3c([nH]c2c1)SC(N1CCOCC1)=NC3`, the IC50 with Jurkat is 8.7 µM; in the test with MCF7, 55.1 µM; with CCRF-CEM it was 5.9 µM; in the test on HeLa, 72.5 µM; with MDA-MB-231 it was 33.1 µM; in the test on A549, 62.9 µM.
As to `CN(C1=NCc2c([nH]c3ccccc23)S1)c1ccccc1`, the IC50 came to 75.5 µM with Jurkat; 95 µM with MCF7; 28 µM in the test on CCRF-CEM; 71.7 µM in the test on HeLa; 42.4 µM in the test with MDA-MB-231; 91.5 µM in the test on A549.
Regarding `CNC1=NCc2c([nH]c3ccccc23)S1`, the IC50 is 5.2 µM with Jurkat; 43.2 µM with MCF7; 4.7 µM in the test on CCRF-CEM; 67.2 µM in the test with HeLa; 34.3 µM in the test on MDA-MB-231; 43.4 µM with A549.
As for `c1ccc2c3c([nH]c2c1)SC(NC1CCCCC1)=NC3`, the IC50 with Jurkat was 5.2 µM; in the test with MCF7, 64.3 µM; in the test with CCRF-CEM, 3.9 µM; with HeLa it was 65 µM; with MDA-MB-231, 30.9 µM; with A549, 55.3 µM.
`c1ccc2c3c([nH]c2c1)SC(N1CCCCC1)=NC3`: the IC50 was 7.3 µM in the test with Jurkat; 37.1 µM in the test with MCF7; 6.6 µM with CCRF-CEM; 40.7 µM in the test with HeLa; 35.5 µM with MDA-MB-231; 42.2 µM in the test on A549.
`CSC(=S)NCc1cn(C(=O)OC(C)(C)C)c2ccccc12`: the IC50 in the test on Jurkat worked out at 17.8 µM; in the test with MCF7, 23 µM; in the test on CCRF-CEM, 19.6 µM; with HeLa it was 16.9 µM; in the test with MDA-MB-231, 21.4 µM; with A549 it was 21.4 µM.
With `CC(C)(C)OC(=O)n1cc(CNC(=S)Nc2ccccc2)c2ccccc21`, the IC50 is 3.1 µM in the test with Jurkat; 0.72 µM in the test with MCF7; 90.7 µM in the test with CCRF-CEM; 20.4 µM with HeLa; 28 µM in the test with MDA-MB-231; 6.6 µM in the test on A549.
`CC(C)(C)OC(=O)n1cc(CNC(=S)Nc2ccc(Br)cc2)c2ccccc21`: the IC50 in the test with Jurkat was 4.3 µM; in the test on MCF7, 8.5 µM; with CCRF-CEM, 3.8 µM; with HeLa, 4.5 µM; in the test with MDA-MB-231 it was 13 µM; in the test with A549, 6.8 µM.
In the case of `CC(C)(C)OC(=O)n1cc(CNC(=S)Nc2ccc(F)cc2)c2ccccc21`, the IC50 in the test with Jurkat was 19.8 µM; with MCF7, 27.6 µM; in the test on CCRF-CEM, 12 µM; in the test with HeLa, 10.7 µM; in the test on MDA-MB-231 it was 22.2 µM; with A549, 24.3 µM.
Take `CC(C)(C)OC(=O)n1cc(CNC(=S)Nc2ccc(Cl)cc2)c2ccccc21`: the IC50 in the test with Jurkat came out at 4.2 µM; in the test with MCF7, 8.6 µM; in the test with CCRF-CEM it was 3.8 µM; in the test on HeLa, 4 µM; in the test on MDA-MB-231, 17.1 µM; in the test with A549, 7.6 µM.
For the compound `COc1ccc(NC(=S)NCc2cn(C(=O)OC(C)(C)C)c3ccccc23)cc1`, the IC50 with Jurkat is 30 µM; in the test with MCF7, 92 µM; in the test with CCRF-CEM, 22 µM; in the test with HeLa it was 34 µM; in the test on MDA-MB-231 it was greater than 100 µM; in the test with A549 it was greater than 100 µM.
As to `Cc1ccc(NC(=S)NCc2cn(C(=O)OC(C)(C)C)c3ccccc23)cc1`, the IC50 in the test on Jurkat worked out at 20 µM; with MCF7, 30 µM; in the test on CCRF-CEM, 16 µM; in the test on HeLa it was 29 µM; in the test on MDA-MB-231 it was 37.4 µM; with A549, 31.3 µM.
Regarding `CC(C)(C)OC(=O)n1cc(CNC(=S)Nc2ccc([N+](=O)[O-])cc2)c2ccccc21`, the IC50 is 3 µM in the test on Jurkat; 9.3 µM with MCF7; 3.8 µM in the test on CCRF-CEM; 14 µM in the test with HeLa; 8.6 µM in the test with MDA-MB-231; 11.5 µM with A549.
As to `CC(C)(C)OC(=O)n1cc(CNC(=S)Nc2ccc(C(F)(F)F)cc2)c2ccccc21`, the IC50 in the test with Jurkat worked out at 3 µM; in the test with MCF7, 3.5 µM; in the test on CCRF-CEM, 3.5 µM; in the test with HeLa, 4 µM; in the test with MDA-MB-231, 4.5 µM; with A549 it was 4 µM.
Take `CC(C)(C)OC(=O)n1cc(CNC(=S)Nc2cc(C(F)(F)F)cc(C(F)(F)F)c2)c2ccccc21`: the IC50 with Jurkat was determined as 3.6 µM; in the test with MCF7, 3.5 µM; in the test on CCRF-CEM it was 2.9 µM; with HeLa it was 6.6 µM; in the test with MDA-MB-231, 4.1 µM; in the test on A549 it was 3.6 µM.
On to `CN(C(=S)NCc1cn(C(=O)OC(C)(C)C)c2ccccc12)c1ccccc1`, for which the IC50 with Jurkat, in the test with MCF7, in the test on CCRF-CEM, in the test on HeLa, in the test on MDA-MB-231 and in the test on A549 was greater than 100 µM each time.
Take `CNC(=S)NCc1cn(C(=O)OC(C)(C)C)c2ccccc12`: the IC50 with Jurkat, in the test on MCF7, in the test with CCRF-CEM, in the test on HeLa, in the test on MDA-MB-231 and in the test on A549 was greater than 100 µM in each case.
As for `CC(C)(C)OC(=O)n1cc(CNC(=S)NC2CCCCC2)c2ccccc21`, the IC50 with Jurkat worked out at 11 µM; in the test on MCF7, 21.5 µM; in the test with CCRF-CEM it was 7 µM; in the test on HeLa, 8 µM; in the test with MDA-MB-231, 37.5 µM; in the test with A549 it was 33.5 µM.
Consider `CC(C)(C)OC(=O)n1cc(CNC(=S)N2CCCCC2)c2ccccc21`, for which the IC50 in the test with Jurkat is 37.6 µM; in the test on MCF7, greater than 100 µM; in the test with CCRF-CEM, 37 µM; in the test with HeLa, 36.8 µM; with MDA-MB-231, greater than 100 µM; with A549 it was 60.1 µM.
In the case of `CC(C)(C)OC(=O)n1cc(CNC(=S)N2CCOCC2)c2ccccc21`, the IC50 was 95.8 µM in the test on Jurkat; greater than 100 µM in the test with MCF7; greater than 100 µM in the test with CCRF-CEM; 80 µM with HeLa; greater than 100 µM with MDA-MB-231; greater than 100 µM with A549.
As to `CO[C@H]1N(C(=O)OC(C)(C)C)c2ccccc2[C@@]12CN=C(N(C)c1ccccc1)S2` (racemic), the IC50 was 5.9 µM in the test with Jurkat; 1.5 µM in the test with MCF7; 18.3 µM in the test with CCRF-CEM; 8.2 µM with HeLa; 31.7 µM with MDA-MB-231.
Regarding `CO[C@@H]1N(C(=O)OC(C)(C)C)c2ccccc2[C@@]12CN=C(NC1CCCCC1)S2` (racemic), the IC50 was 27 µM in the test on Jurkat; 37.2 µM with MCF7; 29.1 µM in the test on CCRF-CEM; 36.7 µM in the test with HeLa; 41.4 µM in the test with MDA-MB-231; 38 µM in the test on A549.
As for `CO[C@H]1N(C(=O)OC(C)(C)C)c2ccccc2[C@@]12CN=C(N1CCCCC1)S2` (racemic), the IC50 with Jurkat stood at 24.9 µM; in the test on MCF7, 52.6 µM; in the test with CCRF-CEM it was 26.1 µM; in the test on HeLa, 54.9 µM; in the test on MDA-MB-231, 61.3 µM; in the test with A549 it was 54.2 µM.
With `CO[C@@H]1N(C(=O)OC(C)(C)C)c2ccccc2[C@@]12CN=C(N1CCCCC1)S2` (racemic), the IC50 is 33.1 µM in the test on Jurkat; 64.4 µM in the test with MCF7; 30.7 µM in the test on CCRF-CEM; 62.3 µM in the test on HeLa; 69 µM in the test with MDA-MB-231; 55.4 µM in the test on A549.
In the case of `CO[C@H]1N(C(=O)OC(C)(C)C)c2ccccc2[C@@]12CN=C(N1CCOCC1)S2` (racemic), the IC50 was 31.3 µM in the test with Jurkat; 70.1 µM in the test with MCF7; 51.4 µM in the test on CCRF-CEM; 55.5 µM in the test on HeLa; 69.3 µM in the test with MDA-MB-231; greater than 100 µM in the test with A549.
As to `CO[C@@H]1N(C(=O)OC(C)(C)C)c2ccccc2[C@@]12CN=C(N1CCOCC1)S2` (racemic), the IC50 with Jurkat was 34.5 µM; in the test on MCF7 it was 69.5 µM; in the test with CCRF-CEM, 35.9 µM; in the test on HeLa, 76 µM; in the test on MDA-MB-231, greater than 100 µM; with A549, greater than 100 µM.
As to `CON1c2ccccc2C2(CN=C(SC)S2)C1O` (racemic), the IC50 with Jurkat, in the test with MCF7, in the test on CCRF-CEM, in the test with HeLa, with MDA-MB-231 and in the test on A549 was 100 µM in each case.
In the case of `CSC1=NC[C@]2(S1)c1ccccc1N(C(=O)OC(C)(C)C)[C@@H]2O` (racemic), the IC50 in the test with Jurkat came out at 34 µM; in the test with MCF7, 100 µM; in the test with CCRF-CEM, 30.6 µM; with HeLa, 78 µM; in the test with MDA-MB-231, 82.8 µM; with A549, 100 µM.
Take `CSC1=NC[C@]2(S1)c1ccccc1N(C(=O)OC(C)(C)C)[C@H]2O` (racemic): the IC50 in the test on Jurkat came to 29.8 µM; in the test on MCF7 it was 100 µM; in the test with CCRF-CEM, 27.1 µM; with HeLa, 93.6 µM; in the test on MDA-MB-231 it was 95 µM; in the test with A549, 100 µM.
On to `CC(C)(C)OC(=O)N1c2ccccc2[C@@]2(CN=C(Nc3ccccc3)S2)[C@H]1O` (racemic), for which the IC50 with Jurkat worked out at 47.7 µM; in the test with MCF7 it was 27.4 µM; with CCRF-CEM, 33 µM; in the test on HeLa, 72.4 µM; with MDA-MB-231, 64 µM; in the test on A549 it was 74 µM.
For `CN(C1=NC[C@]2(S1)c1ccccc1N(C(=O)OC(C)(C)C)[C@@H]2O)c1ccccc1` (racemic), the IC50 is 5.3 µM in the test with Jurkat; 2.7 µM in the test with MCF7; 64.3 µM in the test on CCRF-CEM; greater than 100 µM in the test with HeLa; greater than 100 µM in the test with MDA-MB-231; greater than 100 µM in the test on A549.
As for `CN(C1=NC[C@]2(S1)c1ccccc1N(C(=O)OC(C)(C)C)[C@H]2O)c1ccccc1` (racemic), the IC50 was determined as 21.6 µM in the test on Jurkat; 30.3 µM in the test on MCF7; 22.8 µM in the test with CCRF-CEM; 22.3 µM with HeLa; 32.4 µM in the test with MDA-MB-231; 28.7 µM in the test with A549.
In the case of `CO[C@@H]1N(OC)c2ccccc2[C@@]12CN=C(SC)S2` (racemic), the IC50 worked out at 44 µM in the test on Jurkat and 65 µM in the test on MCF7.
